Test results from ChEMBL document CHEMBL1139671, “Nuphar alkaloids with immediately apoptosis-inducing activity from Nuphar pumilum and their structural requirements for the activity” (2006).

Columns and labels:
Assay type in all cases: functional
HT-1080 [1] = assay: Cytotoxicity against HT1080 cells at 0.1 uM after 24 hrs; details: Homo sapiens, HT-1080, 24 h
B16-F10 [2] = assay: Cytotoxicity against B16F10 cells at 1.0 uM after 24 hrs; details: Mus musculus, B16-F10, 24 h
B16-F10 [3] = assay: Cytotoxicity against B16F10 cells at 10 uM after 48 hrs; details: Mus musculus, B16-F10, 48 h
U-937 [4] = assay: Cytotoxicity against U937 cells at 10 uM after 72 hrs; details: Homo sapiens, U-937, 72 h
HT-1080 [5] = assay: Cytotoxicity against HT1080 cells at 0.03 uM after 72 hrs; details: Homo sapiens, HT-1080, 72 h
HT-1080 [6] = assay: Cytotoxicity against HT1080 cells at 10 uM after 72 hrs; details: Homo sapiens, HT-1080, 72 h
B16-F10 [7] = assay: Cytotoxicity against B16F10 cells at 10 uM after 24 hrs; details: Mus musculus, B16-F10, 24 h
B16-F10 [8] = assay: Cytotoxicity against B16F10 cells at 0.03 uM after 72 hrs; details: Mus musculus, B16-F10, 72 h
U-937 [9] = assay: Cytotoxicity against U937 cells at 1.0 uM after 72 hrs; details: Homo sapiens, U-937, 72 h
B16-F10 [10] = assay: Cytotoxicity against B16F10 cells at 1.0 uM after 72 hrs; details: Mus musculus, B16-F10, 72 h
U-937 [11] = assay: Cytotoxicity against U937 cells at 1.0 uM after 24 hrs; details: Homo sapiens, U-937, 24 h
HT-1080 [12] = assay: Cytotoxicity against HT1080 cells at 1.0 uM after 72 hrs; details: Homo sapiens, HT-1080, 72 h
U-937 [13] = assay: Cytotoxicity against U937 cells at 10 uM after 48 hrs; details: Homo sapiens, U-937, 48 h
U-937 [14] = assay: Cytotoxicity against U937 cells at 0.1 uM after 48 hrs; details: Homo sapiens, U-937, 48 h
HT-1080 [15] = assay: Cytotoxicity against HT1080 cells at 0.1 uM after 72 hrs; details: Homo sapiens, HT-1080, 72 h
B16-F10 [16] = assay: Cytotoxicity against B16F10 cells at 0.03 uM after 24 hrs; details: Mus musculus, B16-F10, 24 h
HT-1080 [17] = assay: Cytotoxicity against HT1080 cells at 0.03 uM after 48 hrs; details: Homo sapiens, HT-1080, 48 h
B16-F10 [18] = assay: Cytotoxicity against B16F10 cells at 0.1 uM after 24 hrs; details: Mus musculus, B16-F10, 24 h
HT-1080 [19] = assay: Cytotoxicity against HT1080 cells at 10 uM after 24 hrs; details: Homo sapiens, HT-1080, 24 h
U-937 [20] = assay: Cytotoxicity against U937 cells at 0.03 uM after 48 hrs; details: Homo sapiens, U-937, 48 h
U-937 [21] = assay: Cytotoxicity against U937 cells at 0.1 uM after 72 hrs; details: Homo sapiens, U-937, 72 h
HT-1080 [22] = assay: Cytotoxicity against HT1080 cells at 0.1 uM after 48 hrs; details: Homo sapiens, HT-1080, 48 h
HT-1080 [23] = assay: Cytotoxicity against HT1080 cells at 1.0 uM after 48 hrs; details: Homo sapiens, HT-1080, 48 h
U-937 [24] = assay: Cytotoxicity against U937 cells at 0.03 uM after 72 hrs; details: Homo sapiens, U-937, 72 h
HT-1080 [25] = assay: Cytotoxicity against HT1080 cells at 10 uM after 48 hrs; details: Homo sapiens, HT-1080, 48 h
B16-F10 [26] = assay: Cytotoxicity against B16F10 cells at 0.1 uM after 48 hrs; details: Mus musculus, B16-F10, 48 h
U-937 [27] = assay: Cytotoxicity against U937 cells at 10 uM after 24 hrs; details: Homo sapiens, U-937, 24 h
U-937 [28] = assay: Cytotoxicity against U937 cells at 1.0 uM after 48 hrs; details: Homo sapiens, U-937, 48 h
B16-F10 [29] = assay: Cytotoxicity against B16F10 cells at 0.1 uM after 72 hrs; details: Mus musculus, B16-F10, 72 h
B16-F10 [30] = assay: Cytotoxicity against B16F10 cells at 0.03 uM after 48 hrs; details: Mus musculus, B16-F10, 48 h
HT-1080 [31] = assay: Cytotoxicity against HT1080 cells at 0.03 uM after 24 hrs; details: Homo sapiens, HT-1080, 24 h
B16-F10 [32] = assay: Cytotoxicity against B16F10 cells at 1.0 uM after 48 hrs; details: Mus musculus, B16-F10, 48 h
U-937 [33] = assay: Cytotoxicity against U937 cells at 0.03 uM after 24 hrs; details: Homo sapiens, U-937, 24 h
B16-F10 [34] = assay: Cytotoxicity against B16F10 cells at 10 uM after 72 hrs; details: Mus musculus, B16-F10, 72 h
HT-1080 [35] = assay: Cytotoxicity against HT1080 cells at 1.0 uM after 24 hrs; details: Homo sapiens, HT-1080, 24 h
U-937 [36] = assay: Cytotoxicity against U937 cells at 0.1 uM after 24 hrs; details: Homo sapiens, U-937, 24 h

CC[C@@]1(O)C(=O)OCc2c1cc1n(c2=O)Cc2cc3ccccc3nc2-1 [CAMPTOTHECIN]
inhibition at 0.1 µM (HT-1080 [1]): -0.4% | inhibition at 1 µM (B16-F10 [2]): 47.8% | inhibition at 10 µM (B16-F10 [3]): 94.7% | inhibition at 10 µM (U-937 [4]): 98% | inhibition at 0.03 µM (HT-1080 [5]): -3.2% | inhibition at 10 µM (HT-1080 [6]): 93.8% | inhibition at 10 µM (B16-F10 [7]): 60.6% | inhibition at 0.03 µM (B16-F10 [8]): 33.4% | inhibition at 1 µM (U-937 [9]): 98.2% | inhibition at 1 µM (B16-F10 [10]): 93.5% | inhibition at 1 µM (U-937 [11]): 75.8% | inhibition at 1 µM (HT-1080 [12]): 65.8% | inhibition at 10 µM (U-937 [13]): 98.2% | inhibition at 0.1 µM (U-937 [14]): 90.6% | inhibition at 0.1 µM (HT-1080 [15]): 5.4% | inhibition at 0.03 µM (B16-F10 [16]): -1.9% | inhibition at 0.03 µM (HT-1080 [17]): -7.1% | inhibition at 0.1 µM (B16-F10 [18]): 16.2% | inhibition at 10 µM (HT-1080 [19]): 62% | inhibition at 0.03 µM (U-937 [20]): 61.9% | inhibition at 0.1 µM (U-937 [21]): 95.3% | inhibition at 0.1 µM (HT-1080 [22]): -11.7% | inhibition at 1 µM (HT-1080 [23]): 77% | inhibition at 0.03 µM (U-937 [24]): 78.5% | inhibition at 10 µM (HT-1080 [25]): 93.1% | inhibition at 0.1 µM (B16-F10 [26]): 39.1% | inhibition at 10 µM (U-937 [27]): 75% | inhibition at 1 µM (U-937 [28]): 94.6% | inhibition at 0.1 µM (B16-F10 [29]): 76.9% | inhibition at 0.03 µM (B16-F10 [30]): 7.5% | inhibition at 0.03 µM (HT-1080 [31]): -3.8% | inhibition at 1 µM (B16-F10 [32]): 83.2% | inhibition at 0.03 µM (U-937 [33]): 7.1% | inhibition at 10 µM (B16-F10 [34]): 98.1% | inhibition at 1 µM (HT-1080 [35]): 49.5% | inhibition at 0.1 µM (U-937 [36]): 46%

COc1cc([C@H]2Oc3c(OC)cc(CCCO)cc3[C@@H]2CO)ccc1O [DIHYDRODEHYDRODICONIFERY ALCOHOL]
inhibition at 10 µM (U-937 [4]): 13.4% | inhibition at 10 µM (HT-1080 [6]): 11.9% | inhibition at 1 µM (U-937 [9]): 9.3% | inhibition at 1 µM (B16-F10 [10]): -5.3% | inhibition at 1 µM (HT-1080 [12]): 5.2% | inhibition at 0.1 µM (HT-1080 [15]): 8.9% | inhibition at 0.1 µM (B16-F10 [29]): -2.4% | inhibition at 10 µM (B16-F10 [34]): -6.5%

C[C@@H]1CC[C@@H](c2ccoc2)N2C[C@]3(CC[C@@H]12)CS[C@]1(CC[C@H]2[C@H](C)CC[C@@H](c4ccoc4)N2C1)C3 [NEOTHIOBINUPHARIDINE]
inhibition at 10 µM (B16-F10 [3]): 24.7% | inhibition at 10 µM (U-937 [4]): 40.1% | inhibition at 10 µM (HT-1080 [6]): 38% | inhibition at 1 µM (U-937 [9]): -1.2% | inhibition at 1 µM (B16-F10 [10]): 4% | inhibition at 1 µM (U-937 [11]): 5.2% | inhibition at 1 µM (HT-1080 [12]): -0.8% | inhibition at 10 µM (U-937 [13]): 65.6% | inhibition at 0.1 µM (HT-1080 [15]): -3.4% | inhibition at 0.1 µM (HT-1080 [22]): -1% | inhibition at 1 µM (HT-1080 [23]): -4.1% | inhibition at 10 µM (HT-1080 [25]): 7.5% | inhibition at 0.1 µM (B16-F10 [26]): 4.4% | inhibition at 10 µM (U-937 [27]): 50.7% | inhibition at 1 µM (U-937 [28]): 5.4% | inhibition at 0.1 µM (B16-F10 [29]): 8.9% | inhibition at 1 µM (B16-F10 [32]): -8.9% | inhibition at 10 µM (B16-F10 [34]): 30.2%

C[C@H]1CC[C@H]2[C@H](C)CC[C@@H](c3ccoc3)[N+]2([O-])C1 (some centres undefined) [NUPHARIDINE]
inhibition at 10 µM (U-937 [4]): 11.5% | inhibition at 10 µM (HT-1080 [6]): -9% | inhibition at 1 µM (U-937 [9]): 8% | inhibition at 1 µM (B16-F10 [10]): 5.3% | inhibition at 1 µM (HT-1080 [12]): -9% | inhibition at 0.1 µM (HT-1080 [15]): -3.3% | inhibition at 0.1 µM (B16-F10 [29]): 0.6% | inhibition at 10 µM (B16-F10 [34]): 4.1%

C[C@@H]1CC[C@@H](c2ccoc2)N2C[C@](C)(O)CC[C@@H]12 [NUPHAROLUTINE]
inhibition at 10 µM (U-937 [4]): 2.8% | inhibition at 10 µM (HT-1080 [6]): -16.7% | inhibition at 1 µM (U-937 [9]): 12.5% | inhibition at 1 µM (B16-F10 [10]): -1.2% | inhibition at 1 µM (HT-1080 [12]): -13.2% | inhibition at 0.1 µM (HT-1080 [15]): -12.9% | inhibition at 0.1 µM (B16-F10 [29]): -3.1% | inhibition at 10 µM (B16-F10 [34]): -0.9%

C[C@@H]1CC[C@@H](c2ccoc2)N2C[C@@]3(CC[C@@H]12)CS[C@@]1(CC[C@H]2[C@H](C)CC[C@@H](c4ccoc4)N2C1)C3 [THIOBINUPHARIDINE]
inhibition at 10 µM (U-937 [4]): 10.9% | inhibition at 10 µM (HT-1080 [6]): -11.7% | inhibition at 1 µM (U-937 [9]): 6.9% | inhibition at 1 µM (B16-F10 [10]): 7.9% | inhibition at 1 µM (HT-1080 [12]): 6.3% | inhibition at 0.1 µM (HT-1080 [15]): 9.9% | inhibition at 0.1 µM (B16-F10 [29]): 6.8% | inhibition at 10 µM (B16-F10 [34]): 4.4%

C[C@@H]1CC[C@@H](c2ccoc2)N2C[C@@]3(CC[C@@H]12)CS[C@]1(CC[C@H]2[C@H](C)CC[C@@H](c4ccoc4)N2C1)C3 [THIONUPHLUTINE B]
inhibition at 10 µM (U-937 [4]): 7.8% | inhibition at 10 µM (HT-1080 [6]): -12% | inhibition at 1 µM (U-937 [9]): 9.1% | inhibition at 1 µM (B16-F10 [10]): -2.2% | inhibition at 1 µM (HT-1080 [12]): 0.9% | inhibition at 0.1 µM (HT-1080 [15]): -10.8% | inhibition at 0.1 µM (B16-F10 [29]): 1.7% | inhibition at 10 µM (B16-F10 [34]): 2.2%
